Results taken from ChEMBL document CHEMBL3351660, “Isolation and total syntheses of cytotoxic cryptolactones A1, A2, B1, and B2: α,β-unsaturated δ-lactones from a Cryptomyzus sp. aphid” (J Nat Prod, 2014).

Experiment: Cytotoxicity against human HL60 cells after 24 hrs by MTT assay
Type: functional, cell-based
Details: HL-60, 24 h

Row | Compound | IC50
1 | CCCCCCCCCC(=O)C[C@H](O)C[C@@H]1CC=CC(=O)O1 | 1200 nM
2 | CCCCCCCCCC(=O)C[C@@H](O)C[C@@H]1CC=CC(=O)O1 | 5300 nM
3 | CCCCCCCCCCCC(=O)C[C@H](O)C[C@@H]1CC=CC(=O)O1 | 970 nM
4 | CCCCCCCCCCCC(=O)C[C@@H](O)C[C@@H]1CC=CC(=O)O1 | 4900 nM
5 | COc1cccc2c1C(=O)c1c(O)c3c(c(O)c1C2=O)C[C@@](O)(C(=O)CO)C[C@@H]3O[C@H]1C[C@H](N)[C@H](O)[C@H](C)O1 [DOXORUBICIN] | 140 nM
